The target of one assay is T1, human DGKα (Homo sapiens, UniProt P23743).
T1 construct: TVMV protease cleavage site (C); Hexa-His (C); made in house; host or cells: Sf9 insect cells (baculovirus, Bac-to-Bac)
In words: DGKα LIPGLO assay (extruded liposome substrate), in vitro DGK inhibition. It is filed as biochemical. The note with it: read-out: DGKa LIPGLO IC50.

Another assay deals with T2, human DGKζ (Homo sapiens, UniProt Q13574).
T2 construct: TVMV protease cleavage site (C); Hexa-His (C); made in house; host or cells: Sf9 insect cells (baculovirus, Bac-to-Bac)
T2 sequence (Q13574 with tags, fused parts or gaps isoform Q13574-4): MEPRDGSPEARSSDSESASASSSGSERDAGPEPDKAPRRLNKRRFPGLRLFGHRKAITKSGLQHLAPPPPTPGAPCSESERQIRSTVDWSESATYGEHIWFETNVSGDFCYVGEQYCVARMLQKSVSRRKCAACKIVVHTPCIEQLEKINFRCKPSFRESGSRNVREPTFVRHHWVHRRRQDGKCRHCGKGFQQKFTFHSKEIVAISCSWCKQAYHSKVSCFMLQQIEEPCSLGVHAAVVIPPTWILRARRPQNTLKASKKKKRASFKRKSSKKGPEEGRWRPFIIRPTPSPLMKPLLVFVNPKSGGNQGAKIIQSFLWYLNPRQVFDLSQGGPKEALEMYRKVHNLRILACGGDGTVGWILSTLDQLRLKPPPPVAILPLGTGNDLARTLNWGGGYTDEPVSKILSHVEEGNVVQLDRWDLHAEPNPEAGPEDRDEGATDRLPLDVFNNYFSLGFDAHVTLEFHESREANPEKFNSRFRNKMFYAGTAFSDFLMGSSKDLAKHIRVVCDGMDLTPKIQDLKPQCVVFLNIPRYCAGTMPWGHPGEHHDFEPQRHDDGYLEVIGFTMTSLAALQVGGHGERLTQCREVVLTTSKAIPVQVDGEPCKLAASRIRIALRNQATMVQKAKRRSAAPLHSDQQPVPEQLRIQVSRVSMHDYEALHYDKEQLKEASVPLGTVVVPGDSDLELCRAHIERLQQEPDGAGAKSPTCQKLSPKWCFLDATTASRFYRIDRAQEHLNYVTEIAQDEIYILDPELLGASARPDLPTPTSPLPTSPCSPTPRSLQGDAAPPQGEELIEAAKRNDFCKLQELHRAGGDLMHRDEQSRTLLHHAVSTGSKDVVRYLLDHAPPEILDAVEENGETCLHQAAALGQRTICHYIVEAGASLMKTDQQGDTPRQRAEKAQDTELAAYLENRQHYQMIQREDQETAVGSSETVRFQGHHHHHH
In words: DGKζ LIPGLO assay (extruded liposome substrate), in vitro DGK inhibition. It is filed as biochemical. To be noted: read-out: DGKz LIPGLO IC50.

Another assay has as its system Human venous whole blood. In words: Human whole blood IFN-γ assay.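 Also: blood from healthy donors exposed to compound for 1 h before stimulation with anti-CD3 and anti-CD28 at 1 µg/mL each, IFN-γ quantified in supernatant by AlphaLISA.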 Type of assay: cell-based. The note with it: human whole blood, read-out: INFg Whole Blood Normalized Agonist EC50.
Setting [1] is: Homo sapiens, 24 h, normalized to 3 μM reference compound with anti-CD3 plus anti-CD28 as 100% activation.
Setting [2] is: normalized to 3 μM reference compound with anti-CD3 plus anti-CD28 as 100% activation.
Where [3] appears, read: anti-CD3 plus anti-CD28, 24 hours, 3 μM reference compound = 100% activation.
Setting [4] is: Homo sapiens, 24 h, anti-CD3 plus anti-CD28, 24 hours, 3 μM reference compound = 100% activation.

The record followed here is patent US10669272B2, “Substituted naphthyridinone compounds useful as T cell activators” (BRISTOL-MYERS SQUIBB COMPANY, priority 2018, dated 2020).

Read-outs that look alike come from different tables or passages of the source.

T1 sequence (P23743 with tags, fused parts or gaps): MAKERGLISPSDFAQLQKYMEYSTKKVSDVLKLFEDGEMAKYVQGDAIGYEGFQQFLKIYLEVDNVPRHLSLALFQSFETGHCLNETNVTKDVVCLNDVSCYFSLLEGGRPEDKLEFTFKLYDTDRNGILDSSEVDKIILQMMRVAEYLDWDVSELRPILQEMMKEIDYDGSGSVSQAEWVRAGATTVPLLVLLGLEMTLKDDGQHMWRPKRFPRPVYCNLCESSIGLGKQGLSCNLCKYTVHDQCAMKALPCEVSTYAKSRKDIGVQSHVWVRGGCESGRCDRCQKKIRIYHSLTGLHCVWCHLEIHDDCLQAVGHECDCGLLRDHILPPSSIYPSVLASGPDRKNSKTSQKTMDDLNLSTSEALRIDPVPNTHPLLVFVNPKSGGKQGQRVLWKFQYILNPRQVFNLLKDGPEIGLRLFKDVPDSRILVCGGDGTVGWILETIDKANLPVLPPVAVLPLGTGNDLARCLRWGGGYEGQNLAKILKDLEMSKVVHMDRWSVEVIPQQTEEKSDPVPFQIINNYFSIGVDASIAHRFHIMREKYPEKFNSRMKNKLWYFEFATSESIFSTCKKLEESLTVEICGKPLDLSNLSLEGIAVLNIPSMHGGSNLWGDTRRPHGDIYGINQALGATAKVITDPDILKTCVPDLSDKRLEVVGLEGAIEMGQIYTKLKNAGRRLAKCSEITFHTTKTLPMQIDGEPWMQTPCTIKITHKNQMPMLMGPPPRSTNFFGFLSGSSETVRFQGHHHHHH
Description for Human venous whole blood: Human Whole Blood IFN-γ Assay
Human venous whole blood (22.5 μL per well), obtained from healthy donors, was pre-treated with compounds for one hour at 37° C. in a humidified 95% air/5% CO2 incubator. The blood was stimulated with 2.5 μL anti-human CD3 and anti-CD28 mAb at a final concentration of 1 μg/mL each for 24 hours at 37° C. IFN-γ in the supernatants was measured using AlphLISA kit (Cat # AL217).

Take `C[C@H]1CN(C(c2ccc(F)cc2)c2ccc(F)cc2)[C@H](CNS(C)(=O)=O)CN1c1cc(=O)n(C)c2ccc(C#N)nc12` [Example 1410, N-(((2S,5S)-1-(bis(4-fluorophenyl)methyl)-4-(6-cyano-1-methyl-2-oxo-1,2-dihydro-1,5-naphthyridin-4-yl)-5-methylpiperazin-2-yl)methyl)methanesulfonamide]: the IC50 (as a rule, the concentration that gives 50% inhibition) is 22 µM at human DGKα (liposome (LIPGLO) assay) and 0.098 µM at human DGKζ (liposome (LIPGLO) assay). Moreover, the EC50 (usually the concentration at which the effect is half-maximal) in the assay with Human venous whole blood (setting [1]) was determined as 1.8 µM.
In the case of `C[C@@H]1CN(c2cc(=O)n(C)c3ccc(C#N)nc23)[C@@H](C)CN1C(c1c(F)cc(O)cc1F)C(F)(F)F` (single isomer, unassigned) [Example 628], the IC50 at human DGKα (liposome (LIPGLO) assay) stood at 5.9 µM; on human DGKζ (liposome (LIPGLO) assay), 7.4 µM. For the same compound, the EC50 with Human venous whole blood (setting [2]) is 4.8 µM.
Taken in the same sequence, the figures for `CC[C@H]1CN(C(c2cccc(F)c2)c2ccc(F)cn2)[C@H](CC)CN1c1cc(=O)n(C)c2ccc(C#N)nc12` (single isomer, unassigned) [Example 1042] were 0.17 µM, 0.063 µM and 0.13 µM.
For `CC[C@@H]1CN(c2cc(=O)n(C)c3ccc(C#N)nc23)[C@@H](C)CN1C(c1ccc(F)cc1)c1ccc(C(F)(F)F)cn1` (single isomer, unassigned) [Example 1107], the figures for the IC50 on human DGKα (liposome (LIPGLO) assay) and on human DGKζ (liposome (LIPGLO) assay) were 0.065 µM and 0.13 µM, respectively. In addition, the EC50 in the assay with Human venous whole blood (setting [2]) is 0.077 µM.
For `CCC(c1cc(OC(F)(F)F)ccc1F)N1C[C@H](CC)N(c2cc(=O)n(C)c3ccc(C#N)nc23)C[C@H]1C` (single isomer, unassigned) [Example 1381] the same measures were 19 µM, 2.1 µM and 20 µM.
On to `C[C@@H]1CN(c2c(C#N)c(=O)n(C)c3ccc(C#N)nc23)[C@@H](C)CN1C(c1ccc(F)cc1)c1cnn(C)c1` (stereo partly drawn) [Example 847], for which the IC50 on human DGKα (DGKα liposome (LIPGLO) assay) turned out to be 22 µM; on human DGKζ (DGKζ liposome (LIPGLO) assay), 7.4 µM. For the same compound, the EC50 with Human venous whole blood (setting [3]) came to 5 µM.
Turning to `CC[C@H]1CN(C(C)c2ccc(F)c(F)c2)[C@H](C)CN1c1cc(=O)n(C)c2ccc(C#N)nc12` (single isomer, unassigned) [Example 1139], the IC50 on human DGKα (liposome (LIPGLO) assay) was determined as 0.064 µM; on human DGKζ (liposome (LIPGLO) assay), 0.1 µM. The EC50 in the assay with Human venous whole blood (setting [2]) is 1.1 µM.
With `COC(=O)c1ccc(C(C)N2CCN(c3c(C#N)c(=O)n(C)c4ccc(C#N)nc34)C[C@H]2C)cc1` (stereo partly drawn) [Example 981], the IC50 turned out to be 2.1 µM at human DGKα (DGKα liposome (LIPGLO) assay) and 28 µM at human DGKζ (DGKζ liposome (LIPGLO) assay). The EC50 with Human venous whole blood (setting [4]) came out at 13 µM.
Consider `C[C@@H]1CN(c2c(C#N)c(=O)n(C)c3ccc(C#N)nc23)[C@@H](C)CN1C(c1ccc(F)cc1)c1cccc(C(F)(F)F)n1` (single isomer, unassigned) [Example 845], for which the values for the IC50 on human DGKα (DGKα liposome (LIPGLO) assay) and at human DGKζ (DGKζ liposome (LIPGLO) assay) were 2.5 µM and 6.2 µM, respectively. Besides, the EC50 in the assay on Human venous whole blood (setting [3]) is 1.5 µM.
`COCc1cc(F)ccc1C(C)N1C[C@H](C)N(c2cc(=O)n(C)c3ccc(C#N)nc23)C[C@H]1C` (single isomer, unassigned) [Example 1315]: the IC50 on human DGKα (liposome (LIPGLO) assay) came out at 79 µM; at human DGKζ (liposome (LIPGLO) assay) it was 1.4 µM. Also, in the assay with Human venous whole blood (setting [1]), the EC50 was 20 µM.
`C[C@@H]1CN(c2c(F)c(=O)n(C)c3ccc(C#N)nc23)[C@@H](C)CN1C(c1ccc(F)cc1)c1cccc(F)c1` (single isomer, unassigned) [Example 330]: the IC50 was 0.26 µM at human DGKα (liposome (LIPGLO) assay) and 0.5 µM on human DGKζ (liposome (LIPGLO) assay). Moreover, in the assay on Human venous whole blood (setting [2]), the EC50 was 1.2 µM.
Consider `C[C@@H]1CN(c2c(C#N)c(=O)n(C)c3ccc(C#N)nc23)CCN1Cc1ccc(Cl)c(F)c1` [Example 1015], for which the IC50 on human DGKα (DGKα liposome (LIPGLO) assay) was determined as 1.4 µM; on human DGKζ (DGKζ liposome (LIPGLO) assay), 8.2 µM. Moreover, the EC50 in the assay with Human venous whole blood (setting [4]) is 2.7 µM.
As for `CC[C@@H]1CN(c2cc(=O)n(C)c3ccc(C#N)nc23)[C@@H](C)CN1C(c1ccc(OC(F)(F)F)cc1)c1ccccn1` (single isomer, unassigned) [Example 341], the IC50 on human DGKα (liposome (LIPGLO) assay) is 0.069 µM; on human DGKζ (liposome (LIPGLO) assay), 0.55 µM. Moreover, in the assay on Human venous whole blood (setting [2]), the EC50 amounted to 0.12 µM.
Taken in the same sequence, the figures for `COCc1cc(C(C)N2C[C@H](C)N(c3cc(=O)n(C)c4ccc(C#N)nc34)C[C@H]2C)ccc1F` (single isomer, unassigned) [Example 1317] were 8 µM, 0.97 µM and 2.9 µM.
Taken in the same sequence, the figures for `CC[C@@H]1CN(c2cc(=O)n(C)c3ccc(C#N)nc23)[C@@H](C)CN1C(c1ccc(F)cc1)c1ccon1` (single isomer, unassigned) [Example 1114] were 0.056 µM, 0.4 µM and 0.1 µM.
`CC(c1ccc(OC(F)F)cc1)N1C[C@H](C)N(c2c(C#N)c(=O)n(C)c3ccc(C#N)nc23)C[C@H]1C` (single isomer, unassigned) [Example 1375]: the results for the IC50 at human DGKα (liposome (LIPGLO) assay) and on human DGKζ (liposome (LIPGLO) assay) were 0.19 µM and 0.89 µM, respectively. In addition, the EC50 in the assay with Human venous whole blood (setting [1]) worked out at 1.8 µM.
In the case of `CC(c1cc(F)cc(OC(F)(F)F)c1)N1C[C@H](C)N(c2cc(=O)n(C)c3ccc(C#N)nc23)C[C@H]1C` (single isomer, unassigned) [Example 1210], the results for the IC50 on human DGKα (liposome (LIPGLO) assay) and at human DGKζ (liposome (LIPGLO) assay) were 9.3 µM and 0.018 µM, respectively. Moreover, the EC50 in the assay on Human venous whole blood (setting [2]) turned out to be 0.88 µM.
With `C[C@@H]1CN(c2cc(=O)n(C)c3ccc(C#N)nc23)[C@@H](C)CN1C(c1ccc(F)cc1)c1cscn1` (stereo partly drawn) [Example 721], the IC50 is 0.072 µM on human DGKα (DGKα liposome (LIPGLO) assay) and 1.1 µM on human DGKζ (DGKζ liposome (LIPGLO) assay). Besides, in the assay on Human venous whole blood (setting [3]), the EC50 came out at 3.5 µM.
Regarding `C[C@@H]1CN(c2cc(=O)n(C)c3ccc(C#N)nc23)[C@@H](C)CN1C(c1ccc(F)cc1)c1cnn2ccccc12` (single isomer, unassigned) [Example 698], the IC50 at human DGKα (liposome (LIPGLO) assay) is 1.7 µM; at human DGKζ (liposome (LIPGLO) assay) it was 0.4 µM. Further, in the assay on Human venous whole blood (setting [1]), the EC50 amounted to 1 µM.
Take `C[C@@H]1CN(c2cc(=O)n(C)c3ccc(C#N)nc23)[C@@H](C)CN1C(c1ccc(F)cc1)C1CCS(=O)(=O)CC1` (single isomer, unassigned) [Example 1300]: the IC50 came to 14 µM on human DGKα (liposome (LIPGLO) assay) and 1.8 µM on human DGKζ (liposome (LIPGLO) assay). Besides, in the assay on Human venous whole blood (setting [1]), the EC50 stood at 7 µM.
For `CC[C@H]1CN(C(C)c2ccc(OC(F)F)cc2)[C@H](CC)CN1c1cc(=O)n(C)c2ccc(C#N)nc12` (single isomer, unassigned) [Example 1374], the IC50 worked out at 0.29 µM on human DGKα (liposome (LIPGLO) assay) and 0.28 µM on human DGKζ (liposome (LIPGLO) assay). The EC50 with Human venous whole blood (setting [2]) worked out at 2.7 µM.
`COC[C@@H]1CN(c2cc(=O)n(C)c3ccc(C#N)nc23)[C@@H](C)CN1Cc1cc(F)c(F)c(F)c1` [Example 1161]: the IC50 was found to be 18 µM at human DGKα (liposome (LIPGLO) assay) and 0.33 µM at human DGKζ (liposome (LIPGLO) assay). Also, the EC50 in the assay on Human venous whole blood (setting [1]) turned out to be 15 µM.
Regarding `C[C@@H]1CN(c2cc(=O)n(C)c3ccc(C#N)nc23)[C@@H](C)CN1C(c1ccc(F)cc1)c1cnsc1` (single isomer, unassigned) [Example 716], the IC50 worked out at 6.6 µM at human DGKα (liposome (LIPGLO) assay) and 20 µM at human DGKζ (liposome (LIPGLO) assay). Moreover, the EC50 in the assay with Human venous whole blood (setting [2]) was 3.1 µM.
With `CC[C@@H]1CN(c2cc(=O)n(C)c3ccc(C#N)nc23)[C@@H](C)CN1Cc1ccc(OC(F)(F)F)c(F)c1` [Example 1332], the 50% inhibitory concentration (IC50) at human DGKα (liposome (LIPGLO) assay) amounted to 0.53 µM; at human DGKζ (liposome (LIPGLO) assay), 0.61 µM. The EC50 with Human venous whole blood (setting [1]) was determined as 4.4 µM.
Take `C[C@@H]1CN(c2cc(=O)n(C)c3ccc(C#N)nc23)[C@@H](C)CN1C(c1ccc(F)cc1)c1cccc(N2CCOCC2)c1` (single isomer, unassigned) [Example 673]: the IC50 on human DGKα (liposome (LIPGLO) assay) stood at 4.7 µM; at human DGKζ (liposome (LIPGLO) assay) it was 2.3 µM. The EC50 with Human venous whole blood (setting [2]) stood at 1.3 µM.
On to `CC(c1ccccc1OC(F)(F)F)N1C[C@H](C)N(c2cc(=O)n(C)c3ccc(C#N)nc23)C[C@H]1C` (single isomer, unassigned) [Example 1213], for which the IC50 at human DGKα (liposome (LIPGLO) assay) was 56 µM; at human DGKζ (liposome (LIPGLO) assay), 3.6 µM. In addition, the EC50 with Human venous whole blood (setting [2]) came to 8.4 µM.
As for `C[C@@H]1CN(c2c(C#N)c(=O)n(C)c3ccc(C#N)nc23)CCN1C(c1ccccc1)c1cc(F)cc(F)c1` (single isomer, unassigned) [Example 875], the IC50 is 1.7 µM at human DGKα (DGKα liposome (LIPGLO) assay) and 0.51 µM on human DGKζ (DGKζ liposome (LIPGLO) assay). Further, the EC50 in the assay with Human venous whole blood (setting [4]) turned out to be 3.1 µM.
`C[C@H]1CN(C(c2ccc(F)cc2)c2ccc(C(F)(F)F)cn2)[C@H](CO)CN1c1cc(=O)n(C)c2ccc(C#N)nc12` (single isomer, unassigned) [Example 1389]: the IC50 is 0.17 µM on human DGKα (liposome (LIPGLO) assay) and 0.88 µM at human DGKζ (liposome (LIPGLO) assay). The EC50 with Human venous whole blood (setting [2]) worked out at 0.92 µM.
Take `C[C@@H]1CN(c2c(C#N)c(=O)n(C)c3ccc(C#N)nc23)CCN1C(c1ccccc1)c1ccc(F)cc1` (single isomer, unassigned) [Example 879]: the values for the IC50 on human DGKα (DGKα liposome (LIPGLO) assay) and on human DGKζ (DGKζ liposome (LIPGLO) assay) were 0.6 µM and 1.1 µM, respectively. The EC50 in the assay on Human venous whole blood (setting [3]) was 1.2 µM.
For `C[C@@H]1CN(c2c(C#N)c(=O)n(C)c3ccc(C#N)nc23)[C@@H](C)CN1C(c1ccc(F)cc1)c1nc(C2CC2)no1` (single isomer, unassigned) [Example 861] the same measures were 0.42 µM, 0.63 µM and 0.42 µM.
For `CC(c1csc(C(F)(F)F)n1)N1C[C@H](C)N(c2cc(=O)n(C)c3ccc(C#N)nc23)C[C@H]1C` (single isomer, unassigned) [Example 1273], the results for the IC50 at human DGKα (liposome (LIPGLO) assay) and on human DGKζ (liposome (LIPGLO) assay) were 0.18 µM and 0.36 µM, respectively. In addition, the EC50 in the assay on Human venous whole blood (setting [1]) was 1.7 µM.
Taken in the same sequence, the figures for `CC[C@H]1CN(Cc2ccc3c(c2)OC(F)(F)O3)[C@H](COC)CN1c1cc(=O)n(C)c2ccc(C#N)nc12` [Example 1407] were 7.1 µM, 0.35 µM and 4.4 µM.
